Measured values published in PubChem BioAssay AID330 (DTP/NCI, 2004).
Inconclusive results and toxic doses are left out.

Test system: P388 leukemia ip, CD2F1 mice, survival T/C
Assay: NCI In Vivo Anticancer Drug Screen. Data for tumor model P388 Leukemia (intraperitoneal) in CD2F1 (CDF1) mice
Details: endpoint: median survival time, higher = longer survival
Procedure, shortened: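 Mice carrying the transplanted tumor received test compound or vehicle. Survival was recorded in each group, and the value is the treated-group measurement divided by that of the vehicle-treated control group.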

[1] = dose: 50.0 mg/kg/injection, schedule: Q01DX009 (ip), vehicle: Klucel (hydroxypropylcellulose) (HPC)
[2] = dose: 100.0 mg/kg/injection, schedule: Q01DX009 (ip), vehicle: Klucel (hydroxypropylcellulose) (HPC)
[3] = dose: 60.0 mg/kg/injection, schedule: Q01DX005 (ip), vehicle: saline with Tween-80
[4] = dose: 120.0 mg/kg/injection, schedule: Q01DX005 (ip), vehicle: saline with Tween-80
[5] = dose: 50.0 mg/kg/injection, schedule: Q04DX003 (ip), vehicle: saline with Tween-80
[6] = dose: 100.0 mg/kg/injection, schedule: Q04DX003 (ip), vehicle: saline with Tween-80
[7] = dose: 200.0 mg/kg/injection, schedule: Q04DX003 (ip), vehicle: saline with Tween-80
[8] = dose: 100.0 mg/kg/injection, schedule: Q01DX001 (ip), vehicle: saline with Tween-80
[9] = dose: 200.0 mg/kg/injection, schedule: Q01DX001 (ip), vehicle: saline with Tween-80
[10] = dose: 400.0 mg/kg/injection, schedule: Q01DX001 (ip), vehicle: saline with Tween-80
[11] = dose: 25.0 mg/kg/injection, schedule: Q04DX003 (ip), vehicle: saline
[12] = dose: 100.0 mg/kg/injection, schedule: Q04DX003 (ip), vehicle: saline
[13] = dose: 50.0 mg/kg/injection, schedule: Q01DX005 (ip), vehicle: Klucel (hydroxypropylcellulose) (HPC)
[14] = dose: 100.0 mg/kg/injection, schedule: Q01DX005 (ip), vehicle: Klucel (hydroxypropylcellulose) (HPC)
[15] = dose: 200.0 mg/kg/injection, schedule: Q01DX005 (ip), vehicle: Klucel (hydroxypropylcellulose) (HPC)
[16] = dose: 50.0 mg/kg/injection, schedule: Q01DX005 (ip), vehicle: saline with Tween-80
[17] = dose: 100.0 mg/kg/injection, schedule: Q01DX005 (ip), vehicle: saline with Tween-80
[18] = dose: 200.0 mg/kg/injection, schedule: Q01DX005 (ip), vehicle: saline with Tween-80
[19] = dose: 50.0 mg/kg/injection, schedule: Q01DX009 (ip), vehicle: saline
[20] = dose: 100.0 mg/kg/injection, schedule: Q01DX009 (ip), vehicle: saline

## OC1C=C2CCN3Cc4cc5c(cc4C(C1O)C23)OCO5 (configuration not stated)
dose: 8.75 mg/kg/injection, schedule: Q01DX009 (ip), vehicle: Klucel (hydroxypropylcellulose) (HPC)
  T/C: 96 % of control
dose: 17.5 mg/kg/injection, schedule: Q01DX009 (ip), vehicle: Klucel (hydroxypropylcellulose) (HPC)
  T/C: 96 % of control
dose: 35.0 mg/kg/injection, schedule: Q01DX009 (ip), vehicle: Klucel (hydroxypropylcellulose) (HPC)
  T/C: 106 % of control
dose: 70.0 mg/kg/injection, schedule: Q01DX009 (ip), vehicle: Klucel (hydroxypropylcellulose) (HPC)
  T/C: 109 % of control

## CC1CC2OC(/C=C/C=C/C=C/C=C\C=C\C(O)=C3/C(=O)C(C(C)C)N(C)C3=O)C(O)C2O1 (configuration not stated)
dose: 310.0 micrograms/kg/injection, schedule: Q01DX005 (ip), vehicle: saline with Tween-80
  T/C: 99 % of control
dose: 625.0 micrograms/kg/injection, schedule: Q01DX005 (ip), vehicle: saline with Tween-80
  T/C: 94 % of control
dose: 1250.0 micrograms/kg/injection, schedule: Q01DX005 (ip), vehicle: saline with Tween-80
  T/C: 101 % of control
dose: 2500.0 micrograms/kg/injection, schedule: Q01DX005 (ip), vehicle: saline with Tween-80
  T/C: 99 % of control
dose: 5000.0 micrograms/kg/injection, schedule: Q01DX005 (ip), vehicle: saline with Tween-80
  T/C: 99 % of control

## O=C(O)c1ccc2c3c(ccc(C(=O)O)c13)CC2
dose: 25.0 mg/kg/injection, schedule: Q01DX009 (ip), vehicle: Klucel (hydroxypropylcellulose) (HPC)
  T/C: 105 % of control
[1]
  T/C: 102 % of control
[2]
  T/C: 99 % of control

## N#CC(C(=O)C(=O)NC1C2CC3CC(C2)CC1C3)c1c(Cl)cccc1Cl (configuration not stated)
[3]
  T/C: 104 % of control
[4]
  T/C: 106 % of control
dose: 240.0 mg/kg/injection, schedule: Q01DX005 (ip), vehicle: saline with Tween-80
  T/C: 100 % of control

## Cc1ccc2ncccc2c1
[5]
  T/C: 102 % of control
[6]
  T/C: 101 % of control
[7]
  T/C: 98 % of control

## CCCCOc1ccc(NC(=O)Nc2nnc(C)s2)cc1
dose: 50.0 mg/kg/injection, schedule: Q01DX009 (ip), vehicle: saline with Tween-80
  T/C: 99 % of control
dose: 100.0 mg/kg/injection, schedule: Q01DX009 (ip), vehicle: saline with Tween-80
  T/C: 89 % of control
dose: 200.0 mg/kg/injection, schedule: Q01DX009 (ip), vehicle: saline with Tween-80
  T/C: 86 % of control

## CC(=O)/C=C/C=C\C=C/N=C(c1ccccc1)c1ccccc1
[5]
  T/C: 95 % of control
[6]
  T/C: 93 % of control
[7]
  T/C: 93 % of control

## COc1ccc(C(O)C2CCCN(c3ccccc3)S2(=O)=O)cc1 (configuration not stated)
[8]
  T/C: 101 % of control
[9]
  T/C: 94 % of control
[10]
  T/C: 98 % of control

## COc1ccc(C(=O)NC[n+]2ccccc2)cc1
[11]
  T/C: 100 % of control
dose: 50.0 mg/kg/injection, schedule: Q04DX003 (ip), vehicle: saline
  T/C: 100 % of control
[12]
  T/C: 104 % of control

## CCOc1c(N=Nc2ccc(Cl)cc2)c(-c2ccccc2)nn1C(N)=S
dose: 50.0 mg/kg/injection, schedule: Q01DX005 (ip), vehicle: saline + Tween-80 + alcohol
  T/C: 108 % of control
dose: 100.0 mg/kg/injection, schedule: Q01DX005 (ip), vehicle: saline + Tween-80 + alcohol
  T/C: 94 % of control
dose: 200.0 mg/kg/injection, schedule: Q01DX005 (ip), vehicle: saline + Tween-80 + alcohol
  T/C: 99 % of control

## COc1ccccc1/C(=N/[N+](C)(C)C)C(C)C
dose: 6.25 mg/kg/injection, schedule: Q04DX002 (ip), vehicle: saline
  T/C: 100 % of control
dose: 12.5 mg/kg/injection, schedule: Q04DX002 (ip), vehicle: saline
  T/C: 100 % of control
dose: 25.0 mg/kg/injection, schedule: Q04DX002 (ip), vehicle: saline
  T/C: 93 % of control

## COC(=O)C1=C(c2ccccc2)ON2C(C)(C)COC12C (configuration not stated)
[13]
  T/C: 106 % of control
[14]
  T/C: 106 % of control
[15]
  T/C: 100 % of control

## CCC1C(=O)OCCOCCOCCOCCOCCOC1=O
[1]
  T/C: 100 % of control
[2]
  T/C: 107 % of control
dose: 200.0 mg/kg/injection, schedule: Q01DX009 (ip), vehicle: Klucel (hydroxypropylcellulose) (HPC)
  T/C: 99 % of control

## CCOC(=O)C1=C(C(=O)c2ccccc2)C(c2ccc(Cl)cc2Cl)C(C(=O)c2ccccc2)=C(C(=O)OCC)N1
[3]
  T/C: 93 % of control
[4]
  T/C: 90 % of control

## O=C1C(Sc2ccccc2)C(c2ccccc2)C1Sc1ccccc1 (configuration not stated)
[16]
  T/C: 96 % of control
[17]
  T/C: 105 % of control
[18]
  T/C: 99 % of control

## Cc1cccc(Nc2nc(C)nc3[nH]cc(-c4ccccc4)c23)c1
dose: 6.25 mg/kg/injection, schedule: Q01DX005 (ip), vehicle: Klucel (hydroxypropylcellulose) (HPC)
  T/C: 91 % of control
dose: 12.5 mg/kg/injection, schedule: Q01DX005 (ip), vehicle: Klucel (hydroxypropylcellulose) (HPC)
  T/C: 90 % of control
[15]
  T/C: 88 % of control

## O=C1CCCCC12CCCC2
dose: 87.5 mg/kg/injection, schedule: Q01DX001 (ip), vehicle: saline sonified
  T/C: 100 % of control
dose: 175.0 mg/kg/injection, schedule: Q01DX001 (ip), vehicle: saline sonified
  T/C: 100 % of control
dose: 250.0 mg/kg/injection, schedule: Q01DX001 (ip), vehicle: saline sonified
  T/C: 105 % of control

## O=C1c2ccccc2NC(c2cc(Cl)cc(Cl)c2O)N1CCc1ccccn1 (configuration not stated)
[19]
  T/C: 92 % of control
[20]
  T/C: 94 % of control

## NC(=O)c1ccccc1Sc1ccccc1C(N)=O
[8]
  T/C: 100 % of control
[9]
  T/C: 100 % of control
[10]
  T/C: 100 % of control

## CN(C)c1ccc(/C=C/c2ccnnc2)cc1
[19]
  T/C: 99 % of control
[20]
  T/C: 104 % of control
dose: 200.0 mg/kg/injection, schedule: Q01DX009 (ip), vehicle: saline
  T/C: 100 % of control

## CCNC1(c2ccccc2)CCCCC1
dose: 6.25 mg/kg/injection, schedule: Q04DX003 (ip), vehicle: saline
  T/C: 121 % of control
dose: 12.5 mg/kg/injection, schedule: Q04DX003 (ip), vehicle: saline
  T/C: 106 % of control
[11]
  T/C: 104 % of control

## CC(=Nc1c[nH]c(=O)[nH]c1=O)c1cc(C)ccc1O
dose: 100.0 mg/kg/injection, schedule: Q04DX002 (ip), vehicle: suspension in saline
  T/C: 105 % of control
dose: 200.0 mg/kg/injection, schedule: Q04DX002 (ip), vehicle: suspension in saline
  T/C: 101 % of control
dose: 400.0 mg/kg/injection, schedule: Q04DX002 (ip), vehicle: suspension in saline
  T/C: 104 % of control

## COc1ccc(N2C(=O)C(=O)C(C(C)=O)C2=O)cc1 (configuration not stated)
dose: 100.0 mg/kg/injection, schedule: Q04DX002 (ip), vehicle: saline with Tween-80
  T/C: 100 % of control
dose: 200.0 mg/kg/injection, schedule: Q04DX002 (ip), vehicle: saline with Tween-80
  T/C: 94 % of control

## C=CCNC(=S)N/N=C(\C)c1cccc(C)n1
[16]
  T/C: 100 % of control
[17]
  T/C: 100 % of control
[18]
  T/C: 112 % of control

## [CH3][Sn]([CH3])([Cl])[c]1cc[c]([Sn]([CH3])([CH3])[Cl])cc1
dose: 0.19 mg/kg/injection, schedule: Q01DX005 (ip), vehicle: suspension in saline
  T/C: 122 % of control
dose: 0.39 mg/kg/injection, schedule: Q01DX005 (ip), vehicle: suspension in saline
  T/C: 115 % of control
dose: 0.79 mg/kg/injection, schedule: Q01DX005 (ip), vehicle: saline
  T/C: 160 % of control
dose: 3.12 mg/kg/injection, schedule: Q01DX005 (ip), vehicle: suspension in saline
  T/C: 154 % of control

## Cc1cc2nnc(C)n2c(C)n1
[12]
  T/C: 95 % of control
dose: 200.0 mg/kg/injection, schedule: Q04DX003 (ip), vehicle: saline
  T/C: 96 % of control
dose: 400.0 mg/kg/injection, schedule: Q04DX003 (ip), vehicle: saline
  T/C: 93 % of control

## O=c1oc2c(cc1-c1ccccc1)CCCC2
[13]
  T/C: 102 % of control
[14]
  T/C: 104 % of control
[15]
  T/C: 103 % of control
